# pIC50: −log10 of the molar value.
# What was measured:
# CDK9/CycT1 = molecular target: T1, CDK9/CycT1 (Homo sapiens, UniProt P50750); experiment: CDK9/CycT1 high ATP kinase assay (TR-FRET, 2 mM ATP); format: biochemical; details: 2 mM ATP (high ATP); median; read-out: CDK9/CyclinT1, 2 mM ATP (high ATP), IC50 (median)
# T1 construct: Recombinant full-length His-tagged human CDK9 and CycT1; purchased Life Technologies PV4131; host or cells: insect cells
# Procedure, shortened: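 Full-length His-tagged human CDK9/CycT1 (insect cell, ~0.5 μg/mL) preincubated 15 min at 22 °C with compound in Tris pH 8.0, MgCl2, DTT buffer before reaction with biotinylated peptide substrate at high ATP (2 mM).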
# [1] = test system: MDA-MB-231, human breast cancer cells; experiment: Proliferation assay MDA-MB-231 (crystal violet, 4 days); format: cell-based; details: Homo sapiens, MDA-MB-231, 96 h, MDA-MB-231 cells, median, read-out: Prolif-MDA MB-231, IC50-[mol/l] (median)
# Procedure, shortened: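 IC50 from a 4-parameter fit of crystal violet absorbance (595 nm), scaled between the day-of-dosing plate (0%) and vehicle cells (100%). MDA-MB-231 or CAL-120 cells were treated for 4 days with 0.01–10 micromol/L compound in 0.1% DMSO after 24 h attachment.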
# T1 sequence (P50750 whole entry): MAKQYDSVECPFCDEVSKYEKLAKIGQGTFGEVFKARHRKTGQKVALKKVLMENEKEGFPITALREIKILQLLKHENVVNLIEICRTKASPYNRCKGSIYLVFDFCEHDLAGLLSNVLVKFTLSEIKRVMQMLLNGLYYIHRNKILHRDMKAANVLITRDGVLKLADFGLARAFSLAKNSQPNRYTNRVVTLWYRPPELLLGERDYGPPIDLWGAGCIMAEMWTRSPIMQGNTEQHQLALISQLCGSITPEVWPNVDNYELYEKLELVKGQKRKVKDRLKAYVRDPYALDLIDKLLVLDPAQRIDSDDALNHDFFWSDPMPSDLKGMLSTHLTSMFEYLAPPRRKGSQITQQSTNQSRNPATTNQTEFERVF
# T1 sequence (O60563 whole entry partner): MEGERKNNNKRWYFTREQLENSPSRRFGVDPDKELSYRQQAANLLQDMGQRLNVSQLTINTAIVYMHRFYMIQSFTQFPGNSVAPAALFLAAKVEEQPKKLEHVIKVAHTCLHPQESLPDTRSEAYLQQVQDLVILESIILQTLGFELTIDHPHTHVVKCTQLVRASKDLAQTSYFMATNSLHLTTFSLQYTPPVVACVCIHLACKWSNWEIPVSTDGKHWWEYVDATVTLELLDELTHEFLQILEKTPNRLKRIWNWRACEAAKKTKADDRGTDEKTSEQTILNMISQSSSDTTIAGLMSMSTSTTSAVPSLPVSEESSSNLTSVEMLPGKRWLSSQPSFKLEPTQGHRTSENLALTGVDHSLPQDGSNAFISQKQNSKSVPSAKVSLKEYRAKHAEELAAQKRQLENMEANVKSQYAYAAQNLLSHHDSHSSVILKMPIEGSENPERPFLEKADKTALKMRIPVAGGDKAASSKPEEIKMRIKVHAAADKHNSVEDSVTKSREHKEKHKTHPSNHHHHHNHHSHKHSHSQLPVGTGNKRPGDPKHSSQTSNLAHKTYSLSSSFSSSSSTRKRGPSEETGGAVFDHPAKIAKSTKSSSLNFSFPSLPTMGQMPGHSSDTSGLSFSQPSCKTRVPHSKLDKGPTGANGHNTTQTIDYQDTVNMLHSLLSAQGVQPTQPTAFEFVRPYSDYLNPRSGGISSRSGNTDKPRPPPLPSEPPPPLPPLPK
pIC50 (CDK9/CycT1),pIC50 [1],SMILES
< 4.70,6.97,CCNC1CCN(c2nc(NCc3nc4ccccc4[nH]3)n3ncc(Br)c3n2)CC1 [Example 300]
< 4.70,7.06,"Fc1ccc2[nH]c(CNc3nc(N4CCOCC4)nc4c([C@@H]5CC5(F)F)cnn34)nc2c1 (single isomer, unassigned) [Example 315, 8-[(1R or S)-2,2-difluorocyclopropyl]-N-[(5-fluoro-1H-benzimidazol-2-yl)methyl]-2-(morpholin-4-yl)pyrazolo[1,5-a][1,3,5]triazin-4-amine]"
< 4.70,6.52,"OCC1CN(c2nc(NCc3nc4ccccc4[nH]3)n3ncc(Br)c3n2)C1 [Example 304, [1-(4-{[(1H-benzimidazol-2-yl)methyl]amino}-8-bromopyrazolo[1,5-a][1,3,5]triazin-2-yl)azetidin-3-yl]methanol]"
< 4.70,7.90,"NC1CCN(c2nc(NCc3nc4ccccc4[nH]3)n3ncc(Br)c3n2)CC1 [Example 256, 2-(4-aminopiperidin-1-yl)-N-[(1H-benzimidazol-2-yl)methyl]-8-bromopyrazolo[1,5-a][1,3,5]triazin-4-amine]"
< 4.70,7.78,"CN1CCN(c2nc(NCc3nc4cc(F)c(F)cc4[nH]3)n3ncc(C4CC4)c3n2)CC1 [Example 311, 8-cyclopropyl-N-[(5,6-difluoro-1H-benzimidazol-2-yl)methyl]-2-(4-methylpiperazin-1-yl)pyrazolo[1,5-a][1,3,5]triazin-4-amine]"
< 4.70,7.98,"CN1CCN(c2nc(NCc3nc4cc(Cl)ccc4[nH]3)n3ncc(C(F)(F)F)c3n2)CC1 [Example 298, N-[(5-chloro-1H-benzimidazol-2-yl)methyl]-2-(4-methylpiperazin-1-yl)-8-(trifluoromethyl)pyrazolo[1,5-a][1,3,5]triazin-4-amine]"
< 4.70,7.65,"Brc1cnn2c(NCc3nc4ccccc4[nH]3)nc(N3C[C@@H]4C[C@H]3CN4)nc12 [Example 270, N-[(1H-benzimidazol-2-yl)methyl]-8-bromo-2-[(1S,4S)-2,5-diazabicyclo[2.2.1]heptan-2-yl]pyrazolo[1,5-a][1,3,5]triazin-4-amine]"
< 4.70,7.14,"c1ccc2[nH]c(CNc3nc(N4CCOCC4)nc4c(C5CCC5)cnn34)nc2c1 [Example 263, N-[(1H-benzimidazol-2-yl)methyl]-8-cyclobutyl-2-(morpholin-4-yl)pyrazolo[1,5-a][1,3,5]triazin-4-amine]"
5.51,7.27,"Brc1cnn2c(NCc3nnc(-c4ccccc4)[nH]3)nc(N3CCOCC3)nc12 [Example 24, 8-bromo-2-(morpholin-4-yl)-N-[(5-phenyl-4H-1,2,4-triazol-3-yl)methyl]pyrazolo[1,5-a][1,3,5]triazin-4-amine]"
5.03,7.63,"CN(CC(C)(C)O)c1nc(NCc2nc3c(F)cccc3[nH]2)n2ncc(C3CC3)c2n1 [Example 295, 1-[(8-cyclopropyl-4-{[(4-fluoro-1H-benzimidazol-2-yl)methyl]amino}pyrazolo[1,5-a][1,3,5]triazin-2-yl)(methyl)amino]-2-methylpropan-2-ol]"
< 4.70,6.88,"NC1(C(F)(F)F)CCN(c2nc(NCc3nc4ccccc4[nH]3)n3ncc(Br)c3n2)C1 (stereo not drawn) [Example 266, 2-[3-amino-3-(trifluoromethyl)pyrrolidin-1-yl]-N-(1H-benzimidazol-2-ylmethyl)-8-bromo-pyrazolo[1,5-a][1,3,5]triazin-4-amine]"
< 4.70,7.50,"Fc1ccc2[nH]c(CNc3nc(N4CCOCC4)nc4c(C5CC5(F)F)cnn34)nc2c1 (single isomer, unassigned) [Example 314, 8-[(1R or S)-2,2-difluorocyclopropyl]-N-[(5-fluoro-1H-benzimidazol-2-yl)methyl]-2-(morpholin-4-yl)pyrazolo[1,5-a][1,3,5]triazin-4-amine]"
< 4.70,7.58,"Fc1cccc2[nH]c(CNc3nc(N4CCOCC4)nc4c(CC(F)(F)F)cnn34)nc12 [Example 303, N-[(4-fluoro-1H-benzimidazol-2-yl)methyl]-2-(morpholin-4-yl)-8-(2,2,2-trifluoroethyl)pyrazolo[1,5-a][1,3,5]triazin-4-amine]"
< 4.70,8.11,"CN(CC(C)(C)O)c1nc(NCc2nc3cc(Cl)c(Cl)cc3[nH]2)n2ncc(C3CC3)c2n1 [Example 306, 1-[(8-cyclopropyl-4-{[(5,6-dichloro-1H-benzimidazol-2-yl)methyl]amino}pyrazolo[1,5-a][1,3,5]triazin-2-yl)(methyl)amino]-2-methylpropan-2-ol]"
< 4.70,6.74,"c1ccc2[nH]c(CNc3nc(N4C[C@@H]5C[C@H]4CO5)nc4c(C5CC5)cnn34)nc2c1 [Example 254, N-[(1H-benzimidazol-2-yl)methyl]-8-cyclopropyl-2-[(1S,4S)-2-oxa-5-azabicyclo[2.2.1]heptan-5-yl]pyrazolo[1,5-a][1,3,5]triazin-4-amine]"
< 4.70,6.75,"CC1(O)CCN(c2nc(NCc3nc4ccccc4[nH]3)n3ncc(Br)c3n2)C1 (single isomer, unassigned) [Example 282, (3R or S)-1-(4-{[(1H-benzimidazol-2-yl)methyl]amino}-8-bromopyrazolo[1,5-a][1,3,5]triazin-2-yl)-3-methylpyrrolidin-3-ol]"
< 4.70,7.00,"Fc1ccc2[nH]c(CNc3nc(N4CCOCC4)nc4c(C5CCCC5)cnn34)nc2c1F [Example 262, 8-cyclopentyl-N-[(4,5-difluoro-1H-benzimidazol-2-yl)methyl]-2-(morpholin-4-yl)pyrazolo[1,5-a][1,3,5]triazin-4-amine]"
5.13,7.50,"N[C@H]1CN(c2nc(NCc3nc4ccccc4[nH]3)n3ncc(Br)c3n2)CC12CC2 [Example 259, 2-[(7R)-7-amino-5-azaspiro[2.4]heptan-5-yl]-N-[(1H-benzimidazol-2-yl)methyl]-8-bromopyrazolo[1,5-a][1,3,5]triazin-4-amine]"
< 4.70,8.56,"N[C@@H]1CN(c2nc(NCc3nc4ccccc4[nH]3)n3ncc(Br)c3n2)CC12CC2 [Example 251, 2-[(7S)-7-amino-5-azaspiro[2.4]heptan-5-yl]-N-[(1H-benzimidazol-2-yl)methyl]-8-bromopyrazolo[1,5-a][1,3,5]triazin-4-amine]"
< 4.70,7.39,"c1ccc2[nH]c(CNc3nc(N4C[C@@H]5CCCN[C@@H]5C4)nc4c(C5CC5)cnn34)nc2c1 [Example 249, N-[(1H-benzimidazol-2-yl)methyl]-8-cyclopropyl-2-[(4aS,7aS)-octahydro-6H-pyrrolo[3,4-b]pyridin-6-yl]pyrazolo[1,5-a][1,3,5]triazin-4-amine]"
< 5.20,8.15,"CN(CC(C)(C)O)c1nc(NCc2nc3c(F)c(F)ccc3[nH]2)n2ncc(C3CC3)c2n1 [Example 292, 1-[(8-cyclopropyl-4-{[(4,5-difluoro-1H-benzimidazol-2-yl)methyl]amino}pyrazolo[1,5-a][1,3,5]triazin-2-yl)(methyl)amino]-2-methylpropan-2-ol]"
< 4.70,7.40,"COc1cccc2[nH]c(CNc3nc(N4CCOCC4)nc4c(CC(F)(F)F)cnn34)nc12 [Example 277, N-[(4-methoxy-1H-benzimidazol-2-yl)methyl]-2-(morpholin-4-yl)-8-(2,2,2-trifluoroethyl)pyrazolo[1,5-a][1,3,5]triazin-4-amine]"
< 4.70,8.17,"Fc1cccc2[nH]c(CNc3nc(N4CCOCC4)nc4c(C(F)(F)F)cnn34)nc12 [Example 274, N-[(4-fluoro-1H-benzimidazol-2-yl)methyl]-2-(morpholin-4-yl)-8-(trifluoromethyl)pyrazolo[1,5-a][1,3,5]triazin-4-amine]"
< 4.70,7.92,"FC(F)(F)Cc1cnn2c(NCc3nc4cc(Cl)c(Cl)cc4[nH]3)nc(N3CCOCC3)nc12 [Example 302, N-[(5,6-dichloro-1H-benzimidazol-2-yl)methyl]-2-(morpholin-4-yl)-8-(2,2,2-trifluoroethyl)pyrazolo[1,5-a][1,3,5]triazin-4-amine]"
< 4.70,8.28,"CN(CC(C)(C)O)c1nc(NCc2nc3cc(F)c(Cl)cc3[nH]2)n2ncc(C3CC3)c2n1 [Example 317, 1-[(4-{[(6-chloro-5-fluoro-1H-benzimidazol-2-yl)methyl]amino}-8-cyclopropylpyrazolo[1,5-a][1,3,5]triazin-2-yl)(methyl)amino]-2-methylpropan-2-ol]"
< 4.70,–,"Brc1cnn2c(NCc3nc4cccnc4[nH]3)nc(N3CCNCC3)nc12.O=CO [Example 19, 8-bromo-N-[(3H-imidazo[4,5-b]pyridin-2-yl)methyl]-2-(piperazin-1-yl)pyrazolo[1,5-a][1,3,5]triazin-4-amine formic acid salt]"
5.24,–,"Fc1ccc2[nH]c(CNc3nc(N4CCOCC4)nc4c(Br)cnn34)nc2c1F [Example 25, 8-bromo-N-[(4,5-difluoro-1H-benzimidazol-2-yl)methyl]-2-(morpholin-4-yl)pyrazolo[1,5-a][1,3,5]triazin-4-amine]"

SMILES,pIC50 (CDK9/CycT1),pIC50 [1]
"Fc1cccc2[nH]c(CNc3nc(N4C[C@H]5CC[C@@H](C4)N5)nc4c(C5CC5)cnn34)nc12 [Example 296, 8-cyclopropyl-2-[(1R,5S)-3,8-diazabicyclo[3.2.1]octan-3-yl]-N-[(4-fluoro-1H-benzimidazol-2-yl)methyl]pyrazolo[1,5-a][1,3,5]triazin-4-amine]",< 4.70,8.36

# Source: patent publication US20230117034A1, “PYRAZOLOTRIAZINES” (Bayer Aktiengesellschaft, priority 2019, published 2023)
